Data on 5 molecules can be found in US4415730A, “19-Deformyl-deoxy-desmycosin” (priority 1981, dated 1983).

Values after ≈ are worked out from the molar mass of the structure shown. Read-outs that look alike come from different tables or passages of the source. Bounds are passed on as bounds.

Type in all cases: cell-based
Test [1] relates to Streptococcus pyogenes 1022. The test can be described thus: MIC, Streptococcus pyogenes 1022.
Test [2] concerns Staphylococcus aureus 0127. The test can be described thus: MIC, Staphylococcus aureus 0127. The source says: (§1) *Macrolide antibioticsresistant A group strain (clinical isolates of
(§2) erythromycin, oleandomycin and 16member-ring-macrolide-resistant strain)

For test [3], the system named is Streptococcus pyogenes N.Y.5. Nature of the test: MIC, Streptococcus pyogenes N.Y.5.
In test [4] the test system is Staphylococcus aureus MS353AO. Nature of the test: MIC, Staphylococcus aureus MS353AO.
Source text: as §1, §2

Test [5] relates to Staphylococcus aureus ATCC 6538P. The test can be described thus: MIC, Staphylococcus aureus ATCC 6538P. The conditions noted are these: ATCC6538P.
In test [6] the test system is Staphylococcus aureus 0119. The test can be described thus: MIC, Staphylococcus aureus 0119.
Source text: as §1, §2

For test [7], the system named is Staphylococcus aureus 0116. Nature of the test: MIC, Staphylococcus aureus 0116.
Source text: as §1, §2

In test [8] the test system is Staphylococcus aureus MS353. The test can be described thus: MIC, Staphylococcus aureus MS353.
The mark [9] stands for this setting: Staphylococcus aureus 0127, macrolide-resistant A group strain, clinical isolate, read-out: MIC.
[10] abbreviates: Staphylococcus aureus 0119, macrolide-resistant A group strain, clinical isolate, read-out: MIC.
Setting [11] is: Staphylococcus aureus 0116, macrolide-resistant A group strain, clinical isolate, read-out: MIC.

Broadly, the MIC is the lowest concentration that inhibits growth of the organism. As to `CCC1OC(=O)CC(O)C(C)C(OC2OC(C)CC(N(C)C)C2O)C(C)CC(C)C(=O)C=CC(C)=CC1COC1OC(C)C(O)C(OC)C1OC` (stereo not shown) [Compound [1] R1 = H, 19-deformyl-4'-deoxy-desmycosin], the MIC is more than 100 µg/mL in test [1]; more than 100 µg/mL in test [2] (setting [9]); not above 0.05 µg/mL in test [3]; 0.8 µg/mL (≈ 1.1 µM) in test [4] (Staphylococcus aureus, MS353AO); not above 0.05 µg/mL in test [5]; more than 100 µg/mL in test [6] (setting [10]). Besides, the results for the minimum inhibitory concentration (MIC) in test [7] (setting [11]) and in test [8] were 0.8 µg/mL (≈ 1.1 µM) and not above 0.05 µg/mL, respectively.

With `CCC1OC(=O)CC(O)C(C)C(OC2OC(C)C(O)C(N(C)C)C2O)C(C)CC(C)C(=O)C=CC(C)=CC1COC1OC(C)CC(OC)C1OC` (stereo not shown) [Compound [1] R1 = OH, 19-deformyl-4"-deoxy-desmycosin], the MIC in test [1] (read-out: MIC) is 25 µg/mL (≈ 34.3 µM); in test [2] (Staphylococcus aureus, 0127), 6.3 µg/mL (≈ 8.65 µM); in test [3] it was not above 0.05 µg/mL; in test [4] (Staphylococcus aureus, MS353AO) it was 25 µg/mL (≈ 34.3 µM); in test [5] it was 0.1 µg/mL (≈ 0.137 µM); in test [6] (setting [10]), 12.5 µg/mL (≈ 17.2 µM). The figures for the minimum inhibitory concentration (MIC) in test [7] (setting [11]) and in test [8] were 3.1 µg/mL (≈ 4.26 µM) and not above 0.05 µg/mL, respectively.

On to `CCC1OC(=O)CC(O)C(C)C(OC2OC(C)C(O)C(N(C)C)C2O)C(CC=O)CC(C)C(=O)/C=C/C(C)=C/C1COC1OC(C)C(O)C(OC)C1OC` (stereo not shown) [descomycin, 4'-demycarosyl tylosin], for which the MIC in test [1] (read-out: MIC) was more than 100 µg/mL; in test [2] (setting [9]) it was more than 100 µg/mL; in test [3] it was not above 0.05 µg/mL; in test [4] (Staphylococcus aureus, MS353AO) it was more than 100 µg/mL; in test [5] it was 0.8 µg/mL (≈ 1.04 µM); in test [6] (setting [10]) it was more than 100 µg/mL. In addition, the values for the MIC in test [7] (setting [11]) and in test [8] were 3.1 µg/mL (≈ 4.02 µM) and 0.8 µg/mL (≈ 1.04 µM), respectively.

In the case of `CC[C@H]1OC(=O)[C@H](C)[C@@H](O[C@H]2C[C@@](C)(OC)[C@@H](O)[C@H](C)O2)[C@H](C)[C@@H](O[C@@H]2O[C@H](C)C[C@H](N(C)C)[C@H]2O)[C@](C)(O)C[C@@H](C)C(=O)[C@H](C)[C@@H](O)[C@]1(C)O` [erythromycin], the minimal inhibitory concentration (MIC) in test [1] is more than 100 µg/mL; in test [2] (Staphylococcus aureus, 0127), more than 100 µg/mL; in test [3] it was not above 0.05 µg/mL; in test [4] (Staphylococcus aureus MS353AO, macrolide-resistant A group strain, clinical isolate, read-out: MIC) it was more than 100 µg/mL; in test [5], not above 0.05 µg/mL; in test [6] (Staphylococcus aureus, 0119), more than 100 µg/mL. In addition, the MIC in test [7] (Staphylococcus aureus, 0116) was more than 100 µg/mL; in test [8] it was 0.1 µg/mL (≈ 0.136 µM).

Consider `CO[C@@H]1[C@@H](O[C@@H]2O[C@H](C)[C@@H](O[C@H]3C[C@@](C)(O)[C@@H](OC(=O)CC(C)C)[C@H](C)O3)[C@H](N(C)C)[C@H]2O)[C@@H](CC=O)C[C@@H](C)[C@@H](O)/C=C/C=C/C[C@@H](C)OC(=O)C[C@H]1OC(C)=O` [josamycin], for which the MIC in test [1] (read-out: MIC) is more than 100 µg/mL; in test [2] (setting [9]), more than 100 µg/mL; in test [3] it was not above 0.05 µg/mL; in test [4] (Staphylococcus aureus, MS353AO), more than 100 µg/mL; in test [5], 0.4 µg/mL (≈ 0.483 µM); in test [6] (setting [10]) it was more than 100 µg/mL. The MIC in test [7] (setting [11]) was more than 100 µg/mL; in test [8], 0.8 µg/mL (≈ 0.966 µM).
